Holding throughout (format): cell-based
Test [1] deals with T1, ΔF508-CFTR (Homo sapiens, UniProt P13569, DEL508-508).
T1 construct: host or cells: CFBE41o-, doxycycline-inducible
Kind of test: CFTR cell surface levels using HRP-tagged ΔF508-CFTR expressing CFBE cells, in the presence of a co-corrector. Particulars: HRP-tagged ΔF508-CFTR CFBE cells, in the presence of 3 μM co-corrector; for EC50: read-out: EC50. The method in brief:
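Chemiluminescent read-out of surface HRP (15 min, dark) after PBS washes. Activity is normalized as 100×(sample−DMSO)/(3 μM co-corrector alone−DMSO).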

Test [2] deals with T1, ΔF508-CFTR. The test is described as follows: CFTR cell surface levels using HRP-tagged ΔF508-CFTR expressing CFBE cells, intrinsic corrector capacity. Further details: % Activation: concentration or dose not given beside the values. Particulars: HRP-tagged ΔF508-CFTR expressing CFBE41o- cells, compound alone (intrinsic corrector capacity), 20 hours at 33° C.; for EC50: read-out: EC50. The method in brief: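 Read-out: chemiluminescent HRP activity of ECL4-HRP-tagged ΔF508-CFTR at the cell surface, 15 min substrate in dark. Normalized as 100×(sample−DMSO)/(positive control−DMSO).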

Another test addresses T2, CFTR ΔF508 (Homo sapiens, UniProt P13569, DEL508-508).
T2 construct: bronchial epithelial cells isolated from CF patients homozygous for the CFTR ΔF508 mutation; McGill University; Asterand; University of North Carolina hAEC-CF; host or cells: primary human bronchial epithelial cells from CF patients homozygous for ΔF508, differentiated at air-liquid interface
The test is described as follows: Chronic TECC assay, primary bronchial epithelial cells of CF patients homozygous for CFTR ΔF508 (corrector, co-corrector and potentiator). Particulars: chronic TECC, AUC = full area under the curve upon forskolin stimulation; for EC50: read-out: EC50 (nM) (AUC**); for % Activity at 1 μM (AUC**): test compound at 1 μM. The method in brief: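 Primary bronchial epithelial cells from ΔF508-homozygous CF patients on collagen IV-coated Transwells were chronically treated with test compound plus corrector and potentiator, which were re-added before recording. Ieq was derived from PD and Rt in NaCl-Ringer, pH 7.4, at 37° C, with apical amiloride and bilateral forskolin, recorded every 2 min over 20 min. Ieq increase was normalized to controls, and EC50 was taken from per-well concentrations.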

Bounds are passed on as bounds.

T1 sequence (P13569 with tags, fused parts or gaps DEL508-508): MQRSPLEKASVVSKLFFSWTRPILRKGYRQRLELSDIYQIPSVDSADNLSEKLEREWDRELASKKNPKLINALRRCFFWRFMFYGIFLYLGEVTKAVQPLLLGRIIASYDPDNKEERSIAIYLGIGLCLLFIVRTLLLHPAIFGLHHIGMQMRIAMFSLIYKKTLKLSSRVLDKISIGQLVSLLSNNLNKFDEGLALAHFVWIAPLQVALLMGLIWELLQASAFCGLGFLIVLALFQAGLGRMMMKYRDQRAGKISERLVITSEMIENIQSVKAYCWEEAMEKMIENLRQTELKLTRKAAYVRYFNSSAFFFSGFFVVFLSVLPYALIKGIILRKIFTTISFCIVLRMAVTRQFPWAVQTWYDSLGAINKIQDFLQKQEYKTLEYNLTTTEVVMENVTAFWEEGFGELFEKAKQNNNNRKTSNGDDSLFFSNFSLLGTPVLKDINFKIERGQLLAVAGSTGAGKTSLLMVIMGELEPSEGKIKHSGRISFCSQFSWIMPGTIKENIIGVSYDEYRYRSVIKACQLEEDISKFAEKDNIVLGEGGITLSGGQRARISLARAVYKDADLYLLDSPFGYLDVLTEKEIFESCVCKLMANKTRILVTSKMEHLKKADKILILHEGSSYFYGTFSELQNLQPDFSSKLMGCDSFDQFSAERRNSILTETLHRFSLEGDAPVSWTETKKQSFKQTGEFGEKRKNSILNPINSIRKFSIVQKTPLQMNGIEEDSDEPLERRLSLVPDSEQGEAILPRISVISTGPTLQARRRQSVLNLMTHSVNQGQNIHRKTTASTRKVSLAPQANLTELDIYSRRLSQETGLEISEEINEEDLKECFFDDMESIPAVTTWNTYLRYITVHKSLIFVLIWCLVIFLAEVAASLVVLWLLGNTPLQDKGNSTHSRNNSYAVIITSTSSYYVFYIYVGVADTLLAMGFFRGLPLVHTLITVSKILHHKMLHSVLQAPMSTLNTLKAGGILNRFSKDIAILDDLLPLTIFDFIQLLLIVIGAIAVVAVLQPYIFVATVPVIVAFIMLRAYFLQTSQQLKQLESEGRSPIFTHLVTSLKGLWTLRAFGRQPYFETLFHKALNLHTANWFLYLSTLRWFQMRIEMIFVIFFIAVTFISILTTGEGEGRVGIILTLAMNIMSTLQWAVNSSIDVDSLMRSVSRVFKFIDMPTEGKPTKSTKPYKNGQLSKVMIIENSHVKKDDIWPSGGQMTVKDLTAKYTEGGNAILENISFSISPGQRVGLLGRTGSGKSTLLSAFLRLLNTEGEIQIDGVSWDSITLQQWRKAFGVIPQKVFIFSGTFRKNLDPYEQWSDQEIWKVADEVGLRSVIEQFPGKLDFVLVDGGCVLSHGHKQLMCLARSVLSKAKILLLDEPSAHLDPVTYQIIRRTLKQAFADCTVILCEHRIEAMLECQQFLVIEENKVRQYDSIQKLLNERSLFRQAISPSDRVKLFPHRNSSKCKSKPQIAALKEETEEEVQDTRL
T2 sequence (P13569 with tags, fused parts or gaps DEL508-508): as above

For `CS(=O)(=O)NC(=O)c1cc(N2CCC(OCC3CC3)CC2)c2c(C3CCC3)nn(-c3ccccc3)c2n1` [Compound 230, 3-cyclobutyl-4-[4-(cyclopropylmethoxy)piperidin-1-yl]-N-(methanesulfonyl)-1-phenyl-1H-pyrazolo[3,4-b]pyridine-6-carboxamide], the “% Activation” value came out at 440.1% at ΔF508-CFTR [1] and 243.75% on ΔF508-CFTR [2]. The EC50 stood at 0.18 µM on ΔF508-CFTR [1], 0.406 µM at ΔF508-CFTR [2] and 27 nM on CFTR ΔF508. Further, the “% Activity at 1 μM (AUC**)” value at CFTR ΔF508 is 265.44%.

With `COCCS(=O)(=O)NC(=O)c1cc(N2CCC(COC)CC2)c2c(C(C)C)nn(-c3ccc(F)cc3)c2n1` [Compound 236, 1-(4-fluorophenyl)-N-(2-methoxyethanesulfonyl)-4-[4-(methoxymethyl)piperidin-1-yl]-3-(propan-2-yl)-1H-pyrazolo[3,4-b]pyridine-6-carboxamide], on ΔF508-CFTR [1], the “% Activation” value was determined as 497.5% and the EC50 came out at 0.0932 µM. Moreover, on ΔF508-CFTR [2], the “% Activation” value stood at 309.83% and the EC50 came to 0.316 µM. In addition, at CFTR ΔF508, the EC50 amounted to 80 nM and the “% Activity at 1 μM (AUC**)” value worked out at 434.22%.

`CS(=O)(=O)NC(=O)c1cc(OCC2CCC(F)(F)C2)c2c(C3CCC3)nn(-c3ccccc3)c2n1` (stereo not drawn) [Compound 238, 3-cyclobutyl-4-[(3,3-difluorocyclopentyl)methoxy]-N-(methanesulfonyl)-1-phenyl-1H-pyrazolo[3,4-b]pyridine-6-carboxamide]: on ΔF508-CFTR [1], the “% Activation” value worked out at 347.55% and the EC50 was found to be 0.219 µM. For the same compound, at ΔF508-CFTR [2], the “% Activation” value turned out to be 159.83% and the EC50 amounted to 0.601 µM. In addition, the “% Activity at 1 μM (AUC**)” value on CFTR ΔF508 stood at 521.96%.

As for `CC(C)c1nn(-c2ccc(F)cc2)c2nc(C(=O)NS(C)(=O)=O)cc(N3CCC(C#N)CC3)c12` [Compound 240, 4-(4-cyanopiperidin-1-yl)-1-(4-fluorophenyl)-N-(methanesulfonyl)-3-(propan-2-yl)-1H-pyrazolo[3,4-b]pyridine-6-carboxamide], the “% Activation” value at ΔF508-CFTR [1] is 312.8%; on ΔF508-CFTR [2], 176.67%. For the same compound, the EC50 on ΔF508-CFTR [1] came to 0.139 µM; at ΔF508-CFTR [2], 0.377 µM; at CFTR ΔF508, 140 nM. In addition, the “% Activity at 1 μM (AUC**)” value at CFTR ΔF508 turned out to be 288.71%.

Turning to `COC(C)C1CCN(c2cc(C(=O)NS(C)(=O)=O)nc3c2c(C2CCC2)nn3-c2ccccc2)CC1` (stereo not drawn) [Compound 241, 3-cyclobutyl-N-(methanesulfonyl)-4-[4-(1-methoxyethyl)piperidin-1-yl]-1-phenyl-1H-pyrazolo[3,4-b]pyridine-6-carboxamide], on ΔF508-CFTR [1], the “% Activation” value is on record as 488.15% and the EC50 came to 0.0822 µM. Further, at ΔF508-CFTR [2], the “% Activation” value is on record as 261.93% and the EC50 was 0.366 µM. Also, on CFTR ΔF508, the EC50 is under 10 nM and the “% Activity at 1 μM (AUC**)” value is recorded as 400%.

On to `COC(C)(C1CCN(c2cc(C(=O)NS(C)(=O)=O)nc3c2c(C2CCC2)nn3-c2ccccc2)CC1)C(F)(F)F` (stereo not drawn) [Compound 242, 3-cyclobutyl-N-(methanesulfonyl)-1-phenyl-4-[4-(1,1,1-trifluoro-2-methoxypropan-2-yl)piperidin-1-yl]-1H-pyrazolo[3,4-b]pyridine-6-carboxamide], for which the “% Activation” value was determined as 459.15% at ΔF508-CFTR [1] and 242.1% at ΔF508-CFTR [2]. Also, the EC50 on ΔF508-CFTR [1] came out at 0.203 µM; on ΔF508-CFTR [2] it was 0.283 µM; on CFTR ΔF508, 14 nM. In addition, the “% Activity at 1 μM (AUC**)” value at CFTR ΔF508 is 308.45%.

`CS(=O)(=O)NC(=O)c1cc(OCCN2CCS(=O)(=O)CC2)c2c(C3CCC3)nn(-c3ccccc3)c2n1` [Compound 243, 3-cyclobutyl-4-[2-(1,1-dioxo-1λ^6,4-thiazinan-4-yl)ethoxy]-N-(methanesulfonyl)-1-phenyl-1H-pyrazolo[3,4-b]pyridine-6-carboxamide]: on ΔF508-CFTR [1], the “% Activation” value amounted to 204.1% and the EC50 came out at 3.33 µM. Further, on ΔF508-CFTR [2], the “% Activation” value amounted to 78.11% and the EC50 is 3.34 µM. For the same compound, the “% Activity at 1 μM (AUC**)” value at CFTR ΔF508 was 165.81%.

With `CS(=O)(=O)NC(=O)c1cc(N2CCC(CO)CC2)c2c(C3CCC3)nn(-c3ccccc3)c2n1` [Compound 244, 3-cyclobutyl-4-[4-(hydroxymethyl)piperidin-1-yl]-N-(methanesulfonyl)-1-phenyl-1H-pyrazolo[3,4-b]pyridine-6-carboxamide], on ΔF508-CFTR [1], the “% Activation” value is given as 290.6% and the 50% effective concentration (EC50) is 0.413 µM. In addition, on ΔF508-CFTR [2], the “% Activation” value was determined as 182.7% and the concentration giving a half-maximal response (EC50) was determined as 0.381 µM. For the same compound, at CFTR ΔF508, the “% Activity at 1 μM (AUC**)” value is given as 238.89%.

`COCC1CCN(c2cc(C(=O)NS(=O)(=O)c3cnn(C)c3)nc3c2c(C2CCC2)nn3-c2ccccc2)CC1` [Compound 245, 3-cyclobutyl-4-[4-(methoxymethyl)piperidin-1-yl]-N-(1-methyl-1H-pyrazole-4-sulfonyl)-1-phenyl-1H-pyrazolo[3,4-b]pyridine-6-carboxamide]: at ΔF508-CFTR [1], the “% Activation” value is listed as 460% and the EC50 amounted to 0.694 µM. Moreover, on ΔF508-CFTR [2], the “% Activation” value was found to be 228% and the EC50 was 0.495 µM. Also, on CFTR ΔF508, the “% Activity at 1 μM (AUC**)” value is reported as 628.25%.

As for `COCCN(CCOC)c1ccc(-c2cc(C(=O)NS(C)(=O)=O)nc3c2c(C2CCC2)nn3-c2ccccc2)cn1` [Compound 246, 4-{6-[bis(2-methoxyethyl)amino]pyridin-3-yl}-3-cyclobutyl-N-(methanesulfonyl)-1-phenyl-1H-pyrazolo[3,4-b]pyridine-6-carboxamide], on ΔF508-CFTR [1], the “% Activation” value stood at 331.65% and the EC50 came out at 0.0773 µM. On ΔF508-CFTR [2], the “% Activation” value is 112.1% and the concentration giving a half-maximal response (EC50) is 0.371 µM. Also, at CFTR ΔF508, the EC50 turned out to be 61 nM and the “% Activity at 1 μM (AUC**)” value stood at 301.36%.

For `COCC1(OC)CCN(c2cc(C(=O)NS(C)(=O)=O)nc3c2c(C2CCC2)nn3-c2ccccc2)CC1` [Compound 247, 3-cyclobutyl-N-(methanesulfonyl)-4-[4-methoxy-4-(methoxymethyl)piperidin-1-yl]-1-phenyl-1H-pyrazolo[3,4-b]pyridine-6-carboxamide], the results for the “% Activation” value on ΔF508-CFTR [1] and on ΔF508-CFTR [2] were 281.7% and 126.8%, respectively. The results for the EC50 on ΔF508-CFTR [1], on ΔF508-CFTR [2] and at CFTR ΔF508 were 0.221 µM, 0.46 µM and 81 nM, respectively. In addition, the “% Activity at 1 μM (AUC**)” value at CFTR ΔF508 is 422.93%.

As for `COCC1CCN(c2cc(C(=O)NS(C)(=O)=O)nc3c2c(C(C)C)nn3-c2ccnc(N3CCOCC3)c2)CC1` [Compound 248, N-(methanesulfonyl)-4-[4-(methoxymethyl)piperidin-1-yl]-1-[2-(morpholin-4-yl)pyridin-4-yl]-3-(propan-2-yl)-1H-pyrazolo[3,4-b]pyridine-6-carboxamide], on ΔF508-CFTR [1], the “% Activation” value was determined as 450.6% and the EC50 turned out to be 0.221 µM. For the same compound, at ΔF508-CFTR [2], the “% Activation” value worked out at 234.6% and the EC50 was determined as 0.371 µM. The “% Activity at 1 μM (AUC**)” value at CFTR ΔF508 came out at 275.96%.

With `COCCS(=O)(=O)NC(=O)c1cc(N2CCC(COC)CC2)c2c(C(C)C)nn(-c3ccnc(N4CCOCC4)c3)c2n1` [Compound 249, N-(2-methoxyethanesulfonyl)-4-[4-(methoxymethyl)piperidin-1-yl]-1-[2-(morpholin-4-yl)pyridin-4-yl]-3-(propan-2-yl)-1H-pyrazolo[3,4-b]pyridine-6-carboxamide], on ΔF508-CFTR [1], the “% Activation” value came to 468.15% and the EC50 was 0.231 µM. Moreover, on ΔF508-CFTR [2], the “% Activation” value came out at 187.6% and the EC50 was 0.371 µM. Besides, on CFTR ΔF508, the “% Activity at 1 μM (AUC**)” value amounted to 271.29%.

For the origin of these results see US10259810B2, “N-sulfonylated pyrazolo[3,4-b]pyridin-6-carboxamides and method of use” (AbbVie S.à.r.l., priority 2015, dated 2019).
